Data as given in ChEMBL document CHEMBL1129522, “Inhibitors of acyl-CoA:cholesterol O-acyltransferase. 17. Structure-activity relationships of several series of compounds derived from N-chlorosulfonyl isocyanate” (J Med Chem, 1996).
“And” between values parts separate entries of the source, which are not always exact repeats. Identical values can stand only once.

Columns and labels:
[1] = target: T1, Sterol O-acyltransferase 1 (Rattus norvegicus, UniProt O70536); experiment: In vitro inhibitory activity against acyl coenzyme A:cholesterol acyltransferase 1 in microsomes of rat liver
T1 sequence (O70536 whole entry): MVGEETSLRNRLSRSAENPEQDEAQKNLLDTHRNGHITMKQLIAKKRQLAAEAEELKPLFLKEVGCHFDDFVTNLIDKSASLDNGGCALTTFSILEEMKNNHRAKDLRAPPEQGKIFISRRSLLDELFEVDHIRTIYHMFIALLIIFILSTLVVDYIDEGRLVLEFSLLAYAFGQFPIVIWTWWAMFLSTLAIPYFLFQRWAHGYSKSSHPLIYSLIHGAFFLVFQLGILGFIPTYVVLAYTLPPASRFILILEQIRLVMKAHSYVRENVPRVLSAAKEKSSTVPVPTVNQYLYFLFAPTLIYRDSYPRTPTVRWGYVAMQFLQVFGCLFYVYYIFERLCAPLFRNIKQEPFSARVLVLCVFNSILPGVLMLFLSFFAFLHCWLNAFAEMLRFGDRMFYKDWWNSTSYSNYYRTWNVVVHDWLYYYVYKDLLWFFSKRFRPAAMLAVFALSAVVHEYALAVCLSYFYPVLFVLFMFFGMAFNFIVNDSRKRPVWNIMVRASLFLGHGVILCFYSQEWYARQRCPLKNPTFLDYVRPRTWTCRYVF

[2] = target: T2, Sterol O-acyltransferase 1 (Rattus norvegicus) (UniProt O70536); experiment: Acute in vivo activity was measured by the total plasma cholesterol concentration levels(TC) at dose 3 mg/kg; assay type: functional, organism-based; parameters: dose 3 mg/kg
T2 sequence (whole entry): T1 sequence (O70536 whole entry)

[3] = target: T2, Sterol O-acyltransferase 1 (Rattus norvegicus); experiment: Chronic in vivo activity was measured by the total cholesterol concentration levels in cholesterol fed rats; assay type: functional, organism-based
Rattus norvegicus = experiment: Acute in vivo activity measured by total plasma cholesterol concentration levels (TC) at 30 mg/kg dose; assay type: functional
[4] = target: T2, Sterol O-acyltransferase 1 (Rattus norvegicus); experiment: Chronic in vivo activity was measured by the concentration of high density lipoproteins (HDL) in cholesterol fed rats; assay type: functional, organism-based

| Structure (SMILES) | IC50 [1] | Delta TC [2] | Delta TC [3] | Delta TC (Rattus norvegicus) | Delta HDL [4] |
| --- | --- | --- | --- | --- | --- |
| CC(C)c1cc(C(C)(C)C)cc(C(C)C)c1OC(=O)NS(=O)(=O)Oc1c(C(C)C)cccc1C(C)C | 8.8 µM | -55% | -72% | -58% | 177% |
| CC(C)CN(CC(C)C)S(=O)(=O)NC(=O)Nc1c(C(C)C)cccc1C(C)C | 0.42 µM | -61% | -62% |  | 122% |
| CC(C)c1cccc(C(C)C)c1OC(=O)NS(=O)(=O)N(C(C)C)C1CCCCC1 | 5.1 µM | -49% | -71% |  | 188% |
| CC(C)c1cccc(C(C)C)c1OS(=O)(=O)NC(=O)Oc1c(C(C)(C)C)cc(C(C)(C)C)cc1C(C)(C)C | 26 µM | -69% | -78% | -76% | 108% |
| COc1cc(OC)c(OS(=O)(=O)NC(=O)Oc2c(C(C)C)cccc2C(C)C)c(OC)c1 | > 50 µM | -37% | -37% | -61% | 62% |
| CCCCCCCCN(CCCCCCCC)S(=O)(=O)NC(=O)Oc1c(C(C)C)cccc1C(C)C | 58 µM | -67% | -80% |  | 156% |
| CC(C)c1cccc(C(C)C)c1NC(=O)NS(=O)(=O)N(Cc1ccccc1)Cc1ccccc1 | 2.2 µM | -18% | -28% | -36% | 183% |
| CCCCCCN(CCCCCC)S(=O)(=O)NC(=O)Oc1c(C(C)C)cccc1C(C)C | 4.2 µM | -74% | -75% |  | 144% |
| COc1cc(C(C)(C)C)c(OC(=O)NS(=O)(=O)Nc2c(C(C)C)cccc2C(C)C)c(C(C)(C)C)c1 | 15 µM | -29% | -47% |  | 86% |
| CCCCCN(CCCCC)S(=O)(=O)NC(=O)Oc1c(C(C)C)cccc1C(C)C | 1.3 µM | -66% | -73% |  | 166% |
| CC(C)c1cc(C(C)C)c(OC(=O)NS(=O)(=O)Oc2c(C(C)C)cc(C(C)C)cc2C(C)C)c(C(C)C)c1 | 22 µM | -32% | -62% | -65% | 129% |
| CC(C)c1cccc(C(C)C)c1OS(=O)(=O)NC(=O)Oc1c(C(C)C)c(C(C)C)c(F)c(C(C)C)c1C(C)C | 13 µM | -47% | -74% | -71% | 208% |
| CC(C)c1ccc(C(C)C)c(NC(=O)NS(=O)(=O)Oc2c(C(C)C)cccc2C(C)C)c1 | 8.7 µM | -1% | -43% | -43% | 5% |
| CCCN(CCC)S(=O)(=O)NC(=O)Nc1c(C(C)C)cccc1C(C)C | 1.1 µM | -51% | -53% | -60% | 78% |
| CC(C)c1cc(C(C)C)c(NC(=O)NS(=O)(=O)Oc2c(C(C)C)cccc2C(C)C)c(C(C)C)c1 | 23 µM | -51% | -59% | -68% | 18% |
| CC(C)c1cccc(C(C)C)c1NC(=O)NS(=O)(=O)N(C(C)C)C(C)(C)C | 0.14 µM | -55% | -48% | -17% | 43% |
| CC(C)c1cc(C(C)C)c(OC(=O)NS(=O)(=O)Oc2c(C(C)C)cccc2C(C)C)c(C(C)C)c1 | 14 µM | -57% | -74% | -79% | 153% |
| CC(C)c1cc(O)cc(C(C)C)c1OC(=O)NS(=O)(=O)Oc1c(C(C)C)cccc1C(C)C | > 50 µM | -5% | -25% | -55% | 95% |
| CC(C)c1cccc(C(C)C)c1OS(=O)(=O)NC(=O)Oc1c(C(C)(C)C)cccc1C(C)(C)C | 12 µM | -50% | -64% | -70% | 25% |
| CC(C)CCN(CCC(C)C)S(=O)(=O)NC(=O)Nc1c(C(C)C)cccc1C(C)C | 0.42 µM | -66% | -68% |  | 133% |
| CC(C)c1cc(F)cc(C(C)C)c1OC(=O)NS(=O)(=O)Oc1c(C(C)C)cccc1C(C)C | > 50 µM |  | -52% | -72% | 143% |
| CC(C)c1cccc(C(C)C)c1OC(=O)NS(=O)(=O)Oc1c(C(C)C)cccc1C(C)C |  | -59% and -54% | -64% and -68% |  | 233% and 345% |
| CCCCN(CCCC)S(=O)(=O)NC(=O)Oc1c(C(C)C)cccc1C(C)C |  | -64% and -47% | -69% and -72% |  | 109% and 113% |

| Structure (SMILES) | IC50 [1] | Delta TC [2] | Delta TC [3] | Delta TC (Rattus norvegicus) | Delta HDL [4] |
| --- | --- | --- | --- | --- | --- |
| CC(C)c1cccc(C(C)C)c1OS(=O)(=O)NC(=O)Oc1c(-c2ccccc2)cccc1-c1ccccc1 | 12 µM |  | -38% | -46% | 21% |
| CCCCCN(CCCCC)S(=O)(=O)NC(=O)Nc1c(C(C)C)cccc1C(C)C | 0.42 µM | -68% | -67% |  | 193% |
| CCCCCCCCN(C)S(=O)(=O)NC(=O)Nc1c(C(C)C)cccc1C(C)C | 3.8 µM | -57% | -64% |  | 123% |
| CC(C)c1cccc(C(C)C)c1NC(=O)NS(=O)(=O)N(CC1CCCO1)CC1CCCO1 (configuration not stated) | 1.7 µM | -45% | -56% |  | 123% |
| CCCCCCCCCCCCCCN(C)S(=O)(=O)NC(=O)Nc1c(C(C)C)cccc1C(C)C | 0.33 µM | -65% | -51% |  | 19% |
| CC(C)c1cccc(C(C)C)c1NC(=O)NS(=O)(=O)N(C(C)C)C1CCCCC1 | 0.36 µM | -60% | -63% |  | 94% |
| CC(C)c1cc(C(C)C)c(OS(=O)(=O)NC(=O)Oc2c(C(C)C)cccc2C(C)C)c(C(C)C)c1 | 29 µM | -63% | -61% | -67% | 295% |
| CC(C)c1cccc(C(C)C)c1NC(=O)NS(=O)(=O)N(C)CCc1ccccc1 | 1.7 µM | -38% | -45% |  | 43% |
| CCC(C)N(C(C)CC)S(=O)(=O)NC(=O)Nc1c(C(C)C)cccc1C(C)C (configuration not stated) | 0.1 µM | -65% | -62% |  | 86% |
| CC(C)c1cccc(C(C)C)c1OC(=O)NS(=O)(=O)N(Cc1ccccc1)C(C)C | 12 µM | -59% | -69% |  | 114% |
| Cc1cc(C(C)(C)C)c(OC(=O)NS(=O)(=O)Oc2c(C(C)C)cccc2C(C)C)c(C(C)(C)C)c1 | 7.7 µM | -52% | -66% | -72% | 205% |
| CC(C)c1cccc(C(C)C)c1NC(=O)NS(=O)(=O)N(C1CCCCC1)C1CCCCC1 | 0.23 µM | -60% | -35% |  | 92% |
| CCCCCCCCN(CCCCCCCC)S(=O)(=O)NC(=O)Nc1c(C(C)C)cccc1C(C)C | 1.9 µM | -38% | -56% | -53% | 150% |
| CCCCCCCCCCCCCCCCCCOS(=O)(=O)NC(=O)Nc1c(C(C)C)cccc1C(C)C | 14 µM | -5% | -38% |  | 30% |
| CC(C)c1cccc(C(C)C)c1NC(=O)NS(=O)(=O)N(c1ccccc1)c1ccccc1 | 16 µM | -27% | -36% |  | 170% |
| CC(C)c1cccc(C(C)C)c1OC(=O)NS(=O)(=O)N(c1ccccc1)c1ccccc1 | 58 µM | -46% | -37% |  | 320% |
| CC(C)c1cccc(C(C)C)c1OC(=O)NS(=O)(=O)N(C(C)C)C(C)C | 15 µM | -65% | -59% |  | 82% |
| COc1cc(C(C)C)c(OC(=O)NS(=O)(=O)Oc2c(C(C)C)cccc2C(C)C)c(C(C)C)c1 | > 25 µM | 1% | -12% | -56% | 8% |
| CCCCCCCCCCCCOS(=O)(=O)NC(=O)Oc1c(C(C)(C)C)cc(C)cc1C(C)(C)C | 52 µM | -41% | -33% | -65% | 23% |
| CCCCCCCCN(C)S(=O)(=O)NC(=O)Oc1c(C(C)C)cccc1C(C)C | 22 µM | -57% | -64% |  | 88% |
| CCCCCCCCCCCCOS(=O)(=O)NC(=O)Oc1c(C(C)C)cccc1C(C)C | 13 µM | -63% | -56% | -68% | 31% |
| CCCCCCN(CCCCCC)S(=O)(=O)NC(=O)Nc1c(C(C)C)cccc1C(C)C | 0.51 µM | -63% | -69% |  | 207% |
